Patent EP0302407A2, “Metallic complexes of streptogramin-B, their preparation and their use in animal food” (HOECHST AKTIENGESELLSCHAFT, priority 1987, dated 1989)
Marks after values point to notes of the source that are not given here.

Tests used:
Type in all cases: in vivo
Mastküken = assay: Feeding trial with broiler chicks, Beispiel III (6 weeks); conditions: 10 mg/kg Futter (ppm)
Text: (§1) Der Versuch lief über 6 Wochen. Futter und Trinkwasser wurden nach Belieben angeboten. Die Tiere wurden wöchentlich einzeln gewogen, die Lebendmasse(LM)-Zunahmen errechnet, die Futteraufnahme bestimmt und aus Futteraufnahme : LM-Zunahme der Futteraufwand errechnet. Die Mortalität wurde erfaßt und aus all diesen Parametern die Produktionszahl (PZ) errechnet. [formula]
In einem weiteren Mastküken-Versuch wurde der Einfluß von Etamycin-Zn-Komplex gemäß Beispiel 4 in einer Dosierung von 10 ppm im Vergleich zu einer Negativ-Kontrolle wie im Beispiel I geprüft. Zum Einsatz kamen 36 Mastküken (6 Wiederholungen x 6 Tiere), bei einer Versuchszeit von 6 Wochen. Haltungs- und Fütterungsbedingungen waren die gleichen wie im Beispiel I.

männlichen Mastküken [1] = assay: Feeding trial with broiler chicks, Beispiel IV (5 weeks); conditions: for Mortalität: 50400 min
Text: as §1
Mit 96 männlichen Mastküken wurde in 3 Gruppen zu je 32 Mastküken (4 Wiederholungen x 8 Tiere) über 5 Wochen der Einfluß des Etamycin-Mn-Komplexes gemäß Beispiel 10 in Dosierungen von 5 und 10 ppm im Vergleich zu einer Negativ-Kontrolle (ohne Zusatz) geprüft. Die Haltungs- und Fütterungsbedingungen sowie die Auswertung waren die gleichen wie in Beispiel I.

[2] = system: männlichen Mastküken (Lohmann); assay: Feeding trial with broiler chicks, Beispiel II (42 days)
Text: as §1
In einem Mastküken-Versuch über 42 Tage wurde mit 144 männlichen Mastküken (Lohmann) 3 x 48 Küken (8 Wiederholungen x 6 Tiere) der Einfluß von Etamycin-Cu-Komplex gemäß Beispiel I in Dosierungen von 5 und 10 ppm gegenüber Negativ-Kontrollen ohne Zusatz geprüft. Haltung und Fütterung waren die gleichen wie in Beispiel I.

männlichen Mastküken [3] = assay: Feeding trial with broiler chicks, Beispiel I (6 weeks); conditions: for Mortalität: 60480 min
Text: Ein Fütterungsversuch mit Etamycin-Cu-Komplex gemäß Herstellungsbeispiel 2 wurde mit 120 männlichen Mastküken in 3 Gruppen zu je 40 Küken durchgeführt, die in beheizten Batterien (5 Küken bei 8 Wiederholungen) gehalten wurden. Folgende Präparate und Dosierungen wurden eingesetzt:
Das Grundfutter hatte eine handelsübliche Zusammensetzung mit 13,0 MJ/kg = 3100 kcal/kg und einem Rohproteingehalt von 22 %, bei einem normgerechten Aminosäuren-, Vitamin-, Mineralstoff- und Spurenelementgehalt.
as §1

[4] = 5 mg/kg Futter (ppm), Futteraufnahme : LM-Zunahme
[5] = 5 mg/kg Futter (ppm), control = 100
[6] = 10 mg/kg Futter (ppm), Futteraufnahme : LM-Zunahme
[7] = 10 mg/kg Futter (ppm), control = 100
[8] = 20 mg/kg Futter (ppm), control = 100

Substance: Etamycin-Zn(II)-komplex (Et₂ x Zn(II)) [Etamycin-Zn-Komplex]
- Futteraufnahme (Mastküken): 3041 g
- LM-Zunahme (Mastküken): 1748 * g
- Produktionszahl (Mastküken): 228
- Mortalität (Mastküken; 60480 min): 5,6%
- Futteraufwand (Mastküken; Futteraufnahme : LM-Zunahme): 1,74
- Futteraufnahme (Mastküken; control = 100): 102,5 rel.%
- Futteraufwand (Mastküken; control = 100): 93,5 rel. %
- LM-Zunahme (Mastküken; control = 100): 109,4 rel.%

Substance: Etamycin-Mangan (II)-komplex Et₂ x Mn(II) [Etamycin-Mn-Komplex]
- Futteraufnahme (männlichen Mastküken [1]; 5 mg/kg Futter (ppm)): 2334 g
- LM-Zunahme (männlichen Mastküken [1]; 5 mg/kg Futter (ppm)): 1394 * g
- Produktionszahl (männlichen Mastküken [1]; 5 mg/kg Futter (ppm)): 222
- Mortalität (männlichen Mastküken [1]; 5 mg/kg Futter (ppm)): 0%
- Futteraufwand (männlichen Mastküken [1]; [4]): 1,67
- Futteraufnahme (männlichen Mastküken [1]; [5]): 100 rel.%
- Futteraufwand (männlichen Mastküken [1]; [5]): 93,8 rel. %
- LM-Zunahme (männlichen Mastküken [1]; [5]): 106,4 rel.%
- Futteraufnahme (männlichen Mastküken [1]; 10 mg/kg Futter (ppm)): 2413 g
- LM-Zunahme (männlichen Mastküken [1]; 10 mg/kg Futter (ppm)): 1419 * g
- Produktionszahl (männlichen Mastküken [1]; 10 mg/kg Futter (ppm)): 222
- Mortalität (männlichen Mastküken [1]; 10 mg/kg Futter (ppm)): 0%
- Futteraufwand (männlichen Mastküken [1]; [6]): 1,70
- Futteraufnahme (männlichen Mastküken [1]; [7]): 103,4 rel.%
- Futteraufwand (männlichen Mastküken [1]; [7]): 95,5 rel. %
- LM-Zunahme (männlichen Mastküken [1]; [7]): 108,3 rel.%

Substance: Etamycin-Kupfer-(II)-komplex (Et₂ x Cu(II)) [Etamycin-Cu-Komplex]
- Futteraufnahme ([2]; 5 mg/kg Futter (ppm)): 3260 g
- LM-Zunahme ([2]; 5 mg/kg Futter (ppm)): 1699 * g
- Mortalität ([2]; 5 mg/kg Futter (ppm)): 2,1%
- Produktionszahl ([2]; 5 mg/kg Futter (ppm)): 207
- Futteraufwand [2, 4]: 1,92
- Futteraufnahme [2, 5]: 106,3 rel.%
- Futteraufwand [2, 5]: 97,5 rel. %
- LM-Zunahme [2, 5]: 109,0 rel.%
- Futteraufnahme ([2]; 10 mg/kg Futter (ppm)): 3099 g
- LM-Zunahme ([2]; 10 mg/kg Futter (ppm)): 1673 * g
- Mortalität ([2]; 10 mg/kg Futter (ppm)): 6,3%
- Produktionszahl ([2]; 10 mg/kg Futter (ppm)): 202
- Futteraufwand [2, 6]: 1,85
- Futteraufnahme [2, 7]: 101,0 rel.%
- Futteraufwand [2, 7]: 93,9 rel. %
- LM-Zunahme [2, 7]: 107,3 rel.%
- Futteraufnahme (männlichen Mastküken [3]; 5 mg/kg Futter (ppm)): 2561 g
- LM-Zunahme (männlichen Mastküken [3]; 5 mg/kg Futter (ppm)): 1439 * g
- Produktionszahl (männlichen Mastküken [3]; 5 mg/kg Futter (ppm)): 154
- Mortalität (männlichen Mastküken [3]; 5 mg/kg Futter (ppm)): 20%
- Futteraufwand (männlichen Mastküken [3]; [4]): 1,78
- Futteraufnahme (männlichen Mastküken [3]; [5]): 101,2 rel.%
- Futteraufwand (männlichen Mastküken [3]; [5]): 92,7 rel. %
- LM-Zunahme (männlichen Mastküken [3]; [5]): 109,0 rel.%
- Futteraufnahme (männlichen Mastküken [3]; 20 mg/kg Futter (ppm)): 2644 g
- LM-Zunahme (männlichen Mastküken [3]; 20 mg/kg Futter (ppm)): 1442 * g
- Produktionszahl (männlichen Mastküken [3]; 20 mg/kg Futter (ppm)): 173
- Mortalität (männlichen Mastküken [3]; 20 mg/kg Futter (ppm)): 7,5%
- Futteraufwand (männlichen Mastküken [3]; 20 mg/kg Futter (ppm), Futteraufnahme : LM-Zunahme): 1,83
- Futteraufnahme (männlichen Mastküken [3]; [8]): 104,5 rel.%
- Futteraufwand (männlichen Mastküken [3]; [8]): 95,3 rel. %
- LM-Zunahme (männlichen Mastküken [3]; [8]): 109.2 rel.%
